Biological target: recombinant human (rh)ACE2 (Homo sapiens, UniProt Q9BYF1)
Test: fluorogenic exopeptidase assay
Type: biochemical

recombinant human (rh)ACE2, sequence (Q9BYF1 18-740 limits assumed): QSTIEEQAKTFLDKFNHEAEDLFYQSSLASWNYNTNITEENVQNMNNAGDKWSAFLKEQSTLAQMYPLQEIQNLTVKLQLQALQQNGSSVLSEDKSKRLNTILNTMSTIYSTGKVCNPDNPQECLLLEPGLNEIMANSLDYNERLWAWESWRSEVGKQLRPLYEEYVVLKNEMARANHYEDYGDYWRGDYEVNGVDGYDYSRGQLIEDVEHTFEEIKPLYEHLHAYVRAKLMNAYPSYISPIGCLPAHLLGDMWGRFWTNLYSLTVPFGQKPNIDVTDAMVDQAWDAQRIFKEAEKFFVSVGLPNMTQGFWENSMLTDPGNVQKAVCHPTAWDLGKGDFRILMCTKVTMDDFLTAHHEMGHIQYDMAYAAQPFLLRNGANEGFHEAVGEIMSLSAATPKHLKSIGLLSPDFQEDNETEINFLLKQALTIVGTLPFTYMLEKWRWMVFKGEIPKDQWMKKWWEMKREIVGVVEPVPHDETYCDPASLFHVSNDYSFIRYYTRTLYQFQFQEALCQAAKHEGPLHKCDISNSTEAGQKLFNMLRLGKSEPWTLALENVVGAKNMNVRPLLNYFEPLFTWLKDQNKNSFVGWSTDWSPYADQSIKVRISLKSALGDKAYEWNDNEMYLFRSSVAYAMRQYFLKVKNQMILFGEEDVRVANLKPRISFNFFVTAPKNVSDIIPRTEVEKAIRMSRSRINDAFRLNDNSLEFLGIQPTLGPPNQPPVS

## CC(C)C[C@H](N[C@@H](Cc1cncn1Cc1cc(Cl)cc(Cl)c1)C(=O)O)C(=O)O [MLN-4760]
  IC50: 29.7 nM

## CC(C)C[C@H](N[C@@H](Cc1cncn1Cc1ccc(N)cc1)C(=O)O)C(=O)O [compound 1, (S)-2-(((S)-2-(1-(4-aminobenzyl)-1H-imidazol-5-yl)-1-carboxyethyl)amino)-4-methylpentanoic acid]
  IC50: 11.3 nM
